Test results from patent publication US11427610B2, “Cyclic dinucleotides as anticancer agents” (BRISTOL-MYERS SQUIBB COMPANY, priority 2017, dated 2022).
Like-named read-outs stand apart in the source and are kept apart here.

Legend:
[1] = tested on: NFkB; test: STING THP1 reporter assay, NF-κB pathway (SEAP); type: cell-based; details: THP1-Dual cells, 10% human plasma, 100% activation = 100 μM cGAMP, SEAP readout, read-out: THP1 Reporter Assays EC50 (μM) NFkB
Source text: (§1) THP1-Dual™ cells were derived from the human THP-1 monocyte cell line by stable integration of two inducible reporter constructs. To this end, THP1-Dual™ cells allow the simultaneous study of the NF-κB pathway, by monitoring the activity of SEAP, and the IRF pathway by assessing the activity of a secreted luciferase (Lucia). Both reporter proteins are readily measurable in the cell culture supernatant when using QUANTI-Blue™, a SEAP detection reagent, and QUANTI-Luc™, a luciferase detection reagent.
(§2) THP1-Dual™ cells induce the activation of NF-κB in response to STING agonists. They also trigger the IRF pathway upon stimulation with STING agonists, such as cGAMP. Here, the THP-1-Dual cells were used to assess STING binders for function on the cellular level.
(§3) Serial dilutions of compounds in DMSO were added to low volume 384 well plates at 100 nl/well using an ECHO acoustic dispenser (Labcyte, model 550) to achieve final starting concentration of 100 μM in cell suspension. THP-1 Dual™ STING reporter cells (Invivogen, Dual cells cat #THPD-nfis) were added to the plates with compounds at 15,000 cells in 10 μL per well in RPMI media (Gibco, cat #11875) containing 10% human plasma in a low volume 384-well black wall clear bottom tissue culture plate (Corning, cat #3542) for SEAP assay and low volume solid white plate (Corning, cat #3826) for luciferase assay. One column of the plate was reserved for treatment with cGAMP at 100 μM for 100% activation calculation and one column for no treatment (DMSO only) for baseline activation. Plates were then incubated in 37° C. incubator at 5% CO2 for 20 hours.
(§4) In the SEAP assay, 5 μl of 2× QuantiBlue (Invivogen, cat #Rep-qb2) is added to 384 well black plates seeded with THP1 cells and incubated at 37° C. for 2 hours. Plates were read on the Envision (Perkin Elmer) at 620 nm wavelength (OD620). In the luciferase assay, 5 μl of Quantiluc (Invivogen, Rep-qlc2) is added to white 384 well plates seeded with THP1 cells and read at 5 minutes on the Envision (Perkin Elmer) using a luminescence protocol (RLU). For both cell lines, 100% activation was determined by value (RLU) of THP-1 Dual STING cells stimulated with 100 μM cGAMP (Invivogen, cat #TLRL-NACGA23-5).

[2] = molecular target: T1, STING WT: His-TVMV-S-hSTING(155-341)-H232R (Homo sapiens, UniProt Q86WV6, H232R); test: STING HTRF binding assay, STING WT; details: 20 nM His-tagged STING cytoplasmic domain, 200 nM fluorescein-labeled cGAMP analog probe, one hour; read-out: HTRF Binding Assays IC50 (μM) STING WT
T1 construct: His-TVMV-S-hSTING(155-341)-H232R
Method: (§5) A time resolved FRET-based competition binding assay was used to assess test article binding to STING WT and STING AQ. His-tagged STING cytoplasmic domain (WT or AQ) at a concentration of 20 nM was incubated with 2.5 nM Tb-labeled anti-His antibody, test compound, and fluorescein-labeled cGAMP analog probe (BioLog cat. no. C195) at a concentration of 200 nM (STING WT) or 40 nM (STING AQ) in PBS containing 0.005% Tween-20 and 0.1% BSA for one hour. Fluorescence at 495 nm and 520 nm was measured using an EnVision microplate reader to quantify FRET between Tb-labeled anti-His antibody and fluorescein-labeled probe. Background was defined as the signal obtained in the absence of STING protein, and background subtracted FRET ratios were normalized to the maximum signal obtained in the absence of test compound. These values were converted to a percent inhibition. Percent inhibition was determined for test compounds at 11 concentrations. The IC50, defined as the concentration of competing test compound needed to reduce specific binding of the probe by 50%, was calculated using the 4 parameter logistic equation to fit the data

[3] = tested on: IRF3; test: STING THP1 reporter assay, IRF pathway (Lucia luciferase); type: cell-based; details: THP1-Dual cells, 10% human plasma, 100% activation = 100 μM cGAMP, luciferase readout, read-out: THP1 Reporter Assays EC50 (μM) IRF3
Source text: as §1, §2, §3, §4

[4] = molecular target: T2, STING AQ: His-TVMV-S-hSTING(155-341)-G230A-R293Q (Homo sapiens, UniProt Q86WV6, G230A/H232R/R293Q); test: STING HTRF binding assay, STING AQ; details: 20 nM His-tagged STING cytoplasmic domain, 40 nM fluorescein-labeled cGAMP analog probe, one hour; read-out: HTRF Binding Assays IC50 (μM) STING AQ
T2 construct: His-TVMV-S-hSTING(155-341)-G230A-R293Q
Method: as §5

T1 sequence (Q86WV6 with tags, fused parts or gaps H232R): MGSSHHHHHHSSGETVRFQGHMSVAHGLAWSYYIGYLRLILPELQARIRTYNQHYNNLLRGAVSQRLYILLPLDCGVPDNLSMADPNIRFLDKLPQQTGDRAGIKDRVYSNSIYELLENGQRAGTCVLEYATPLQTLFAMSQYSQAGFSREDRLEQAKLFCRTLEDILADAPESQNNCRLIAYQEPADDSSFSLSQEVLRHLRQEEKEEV
T2 sequence (Q86WV6 with tags, fused parts or gaps G230A/H232R/R293Q): as the sequence (Q86WV6 with tags, fused parts or gaps H232R) above, with G99A, R162Q counted along it

EC50 ([1]; Homo sapiens, THP-1, 20 h) [µM]	EC50 ([3]; Homo sapiens, THP-1, 20 h) [µM]	SMILES	IC50 [2] [µM]	IC50 [4] [µM]	EC50 ([1]; 20 hours) [µM]	EC50 ([3]; 20 hours) [µM]
–	–	C#C[C@@H]1O[C@@H]2COP(=O)(S)O[C@H]3[C@@H](F)[C@H](n4cnc5c(N)ncnc54)O[C@@H]3COP(=O)(S)O[C@@H]1[C@@H]2O (single isomer, unassigned) [Example 1-2]	1.7	0.03	42	24
–	–	Nc1ncnc2c1ncn2[C@@H]1O[C@@H]2COP(O)(=S)O[C@@H]3[C@H](O)[C@@H](COP(O)(=S)O[C@H]2[C@H]1F)O[C@H]3C#Cc1ccccc1 (single isomer, unassigned) [Example 2-4]	> 100	17	–	> 100
–	–	Nc1ncnc2c1ncn2[C@@H]1O[C@@H]2COP(O)(=S)O[C@@H]3[C@H](O)[C@@H](COP(O)(=S)O[C@H]2[C@H]1F)O[C@H]3C#Cc1ccccc1 (single isomer, unassigned) [Example 2-1]	> 100	19.4	–	> 100
–	–	Nc1ncnc2c1ncn2[C@@H]1O[C@@H]2COP(O)(=S)O[C@@H]3[C@H](O)[C@@H](COP(O)(=S)O[C@H]2[C@H]1F)O[C@H]3C#Cc1cccnc1 (single isomer, unassigned) [Example 3-4]	29.6	1.4	> 100	> 100
–	–	Nc1ncnc2c1ncn2[C@@H]1O[C@@H]2COP(O)(=S)O[C@@H]3[C@H](O)[C@@H](COP(O)(=S)O[C@H]2[C@H]1F)O[C@H]3C#Cc1cccnc1 (single isomer, unassigned) [Example 3-2]	3.4	0.2	> 100	> 100
–	–	Nc1ncnc2c1ncn2[C@@H]1O[C@@H]2COP(O)(=S)O[C@@H]3[C@H](O)[C@@H](COP(O)(=S)O[C@H]2[C@H]1F)O[C@H]3C#Cc1ccccc1 (single isomer, unassigned) [Example 2-2]	9.6	0.5	–	> 100
–	–	Nc1ncnc2c1ncn2[C@@H]1O[C@@H]2COP(O)(=S)O[C@@H]3[C@H](O)[C@@H](COP(O)(=S)O[C@H]2[C@H]1F)O[C@H]3C#Cc1cccnc1 (single isomer, unassigned) [Example 3-3]	1.1	0.04	8.1	6
–	–	Nc1ncnc2c1ncn2[C@@H]1O[C@@H]2COP(O)(=S)O[C@@H]3[C@H](O)[C@@H](COP(O)(=S)O[C@H]2[C@H]1F)O[C@H]3C#Cc1cccnc1 (single isomer, unassigned) [Example 3-1]	67.4	1.3	> 100	> 100
37	23	C#C[C@@H]1O[C@@H]2COP(=O)(S)O[C@H]3[C@@H](F)[C@H](n4cnc5c(N)ncnc54)O[C@@H]3COP(=O)(S)O[C@@H]1[C@@H]2O (single isomer, unassigned) [Example 1-1]	1.4	0.06	–	–
> 100	> 100	C#C[C@@H]1O[C@@H]2COP(O)(=S)O[C@H]3[C@@H](F)[C@H](n4cnc5c(N)ncnc54)O[C@@H]3COP(O)(=S)O[C@@H]1[C@@H]2O (single isomer, unassigned) [Example 1-3]	55.3	1.9	–	–

SMILES	EC50 ([1]; Homo sapiens, THP-1, 20 h) [µM]	EC50 ([3]; Homo sapiens, THP-1, 20 h) [µM]	IC50 [2] [µM]	IC50 [4] [µM]	EC50 ([1]; 20 hours) [µM]	EC50 ([3]; 20 hours) [µM]
Nc1ncnc2c1ncn2[C@@H]1O[C@@H]2COP(O)(=S)O[C@@H]3[C@H](O)[C@@H](COP(O)(=S)O[C@H]2[C@H]1F)O[C@H]3C#Cc1ccccc1 (single isomer, unassigned) [Example 2-3]	> 100	> 100	20.5	0.7	–	–
